Data published in patent publication US20240300902A1, “NOVEL TRANSGLUTAMINASE 2 INHIBITOR AND USE THEREOF” (MD BIOLAB CO., LTD., priority 2021, published 2024).
Where two headings read alike, the source gives them in different places.

Legend:
p53 = experiment: P53 rescue test using western blotting; type: cell-based; conditions: low to high concentration, cancer cell lines
Procedure: Whole cell lysates were prepared using a radioimmunoprecipitation assay (RIPA) buffer (150 mM sodium chloride, 1.0% (w/v) IGEPAL® CA-630 (NP-40), 0.5% (w/v) sodium deoxycholate, 0.1% (w/v) sodium dodecyl sulfate (SDS), a protease inhibitor cocktail, and 50 mM Tris-HCl (pH 8.0) containing a phosphatase inhibitor cocktail. Protein assays were performed through Bradford protein assay (Thermo Scientific, Waltham, MA, USA) to normalize protein expression. The proteins were resolved by SDS-PAGE and transferred to polyvinylidene difluoride (PVDF) membranes (Merck Millipore, Burlington, MA, USA). The membranes were blocked with 5% (w/v) BSA for 1 hour at room temperature and incubated overnight at 4° C. with labeled antibodies. Membranes were washed in TBS-T for 1 hour at room temperature and incubated together with a horseradish peroxidase (HRP)-bound secondary antibody for 1 hour at room temperature. Finally, the membranes were washed in TBS-T for 1 hour at room temperature and developed with enhanced chemiluminescence.

[1] = test system: ACHN cancer cell population; experiment: Sulforhodamine B (SRB) assay; type: cell-based, Human; conditions: for GI50 / SRB measurement (percentage decrease in the control value of SRB): 48 hours; for GI50: read-out: GI50 (50% growth inhibition); for SRB measurement (percentage decrease in the control value of SRB): concentration of 10^−5 M; for decrease in cell counts: concentrations 10^−6 M or lower
Procedure: Cells (10,000 cells/well, 100 μL) were incubated in a 96-well microtiter plate. After 24 hours of the incubation, drug (100 μL) was added to each of the wells, and the culture was further incubated at 37° C. for 48 hours. The cells were then fixed in TCA (50 μL per well). The plates were incubated at 4° C. for a minimum of 1 hour or a maximum of 3 hours. The liquid was removed from the plates, and then the plate was washed five times with water and then dried at room temperature (RT) for about 12-24 hours. The fixed cells were stained with 100 μL SRB for 5 minutes at room temperature. After the staining, the plate was washed three times with 1% (w/v) glacial acetic acid and dried at room temperature for about 12-24 hours. Next, the SRB was then dissolved in 10 mM Trizma base, and the absorbance was measured at 515 nm. The effect of the drug was expressed as GI50 (50% growth inhibition).
Specifically, each of the LDD3732, LDD3922, and LDD3959 in concentrations of 10^−9, 10^−8, 10^−7, 10^−6, and 10^−5 M were tested, and the percentage decrease in the control value of SRB was measured using an ACHN cancer cell population.

[2] = target: T1, guinea pig liver-originated transglutaminase 2 (Cavia cutleri, UniProt P08587); experiment: In vitro transglutaminase 2 assay (1), [1,4-14C] putrescine incorporation into succinylated casein; type: biochemical; conditions: for mean value (scintillation counts) / fold values relative to the mean value of the control: 2 μM; for mean value (scintillation counts): negative control 129.0, control 4147.5, FIG. 1; for fold values relative to the mean value of the control: standard deviations 0.02 and 0.01; for TGase2 enzyme activity inhibitory effect compared with streptonigrin (KN383, positive control): same dose (2 μM)
T1 construct: 1 mU of guinea pig liver-originated transglutaminase 2 (Sigma, St. Louis, MO, USA); purchased Sigma; host or cells: guinea pig liver
T1 sequence (P08587 1-690): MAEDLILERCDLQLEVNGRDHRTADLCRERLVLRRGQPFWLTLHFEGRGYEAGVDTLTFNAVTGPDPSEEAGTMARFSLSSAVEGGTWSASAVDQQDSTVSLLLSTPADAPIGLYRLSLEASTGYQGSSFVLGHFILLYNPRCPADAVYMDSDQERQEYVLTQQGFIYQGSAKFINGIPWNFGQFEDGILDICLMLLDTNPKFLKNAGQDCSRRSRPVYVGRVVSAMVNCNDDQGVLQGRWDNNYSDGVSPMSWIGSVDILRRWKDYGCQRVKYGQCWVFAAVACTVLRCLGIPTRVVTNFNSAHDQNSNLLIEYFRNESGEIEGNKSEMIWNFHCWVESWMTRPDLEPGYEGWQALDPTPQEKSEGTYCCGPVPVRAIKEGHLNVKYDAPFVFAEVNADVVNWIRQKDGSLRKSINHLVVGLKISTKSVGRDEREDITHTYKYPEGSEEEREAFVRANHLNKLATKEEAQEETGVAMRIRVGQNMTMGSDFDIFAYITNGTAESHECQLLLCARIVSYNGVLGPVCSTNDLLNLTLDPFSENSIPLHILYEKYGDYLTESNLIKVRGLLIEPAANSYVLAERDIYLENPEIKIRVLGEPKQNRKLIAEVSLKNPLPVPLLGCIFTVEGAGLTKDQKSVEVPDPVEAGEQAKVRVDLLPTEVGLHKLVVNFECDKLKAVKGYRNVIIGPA
Procedure: Incorporation of [1,4-14C] putrescine into succinylated casein was measured to determine the inhibitory effect of each compound on the activity of transglutaminase 2 (TGase 2). 1 mU of guinea pig liver-originated transglutaminase 2 (Sigma, St. Louis, MO, USA) was preincubated with various concentrations of GK13 or GK921 in a 0.1 mL reaction buffer with or without 10 mM CaCl2 for 10 minutes, and 0.4 mL of a substrate solution containing 2% (w/v) succinylated casein and 100 nCi of [1,4-14C] putrescine. After incubation at 37° C. for 1 hour, 4 mL of cold (4° C.) 7.5% (w/v) trichloroacetic acid (TCA) was added to terminate the reaction. The TCA-insoluble precipitate was recovered with a GF/A-grade glass filter (Millipore, Billerica, MA, USA), washed with cold 5% (w/v) TCA, dried, and assessed with a scintillation counter (Beckman Coulter, Brea, CA, USA) to evaluate radiolabel binding. Transglutaminase 2 which was pre-incubated only with a buffer was used as a positive control. The scintillation counts were compared between the example and the positive control, and IC50 values were determined through the logistic linear regression method. The presented data were the mean values of three independent experiments. In this experimental example and the following experimental example, Streptonigrin (described as KN383 in each figure of the drawing), which is an existing transglutaminase 2 inhibitor, was used as a positive control.

MCF7 cells = experiment: Cell viability in breast cancer cell lines according to concentration; type: cell-based; conditions: MCF7, no expression of transglutaminase 2, 72 hours
Procedure: First breast cancer cells (MDA-MB-453, HCC-1806, HCC-1937: 10,000 cells/well, 100 μl) and second breast cancer cells (MDA-MB-231, MCF-7: 10,000 cells/well, 100 μl) were cultured in 96-well microplates.
After 24 hours, LDD3959 […] of various concentrations were added to each well, using a serum-free cell culture medium, and a reaction was allowed to proceed for 2 hours at 37° C. in the presence of 5% CO2. The culture medium was replaced with a culture medium containing 10% FSB, and a reaction was performed for 72 hours.
The existing culture medium was removed, and a new culture medium containing a water soluble tetrazolium salt was added. After that, the plate underwent a reaction at 37° C. in the presence of 5% CO2 for a duration in the range of 1 hour to 3 hours, and then absorbance was measured at 450 nm.

Row | Structure (SMILES) | p53 rescue effect (Western blot band of p53) (p53) | GI50 [1] | SRB measurement (percentage decrease in the control value of SRB) [1] | decrease in cell counts [1] | mean value (scintillation counts) [2] | fold values relative to the mean value of the control [2] | TGase2 enzyme activity inhibitory effect compared with streptonigrin (KN383, positive control) [2] | GI50 ([1]; Homo sapiens) | effective concentration for apoptosis (MCF7 cells)
1 | O=C1C(Cl)=C(Cl)C(=O)c2[nH]c(-c3ccccc3)nc21 [LDD3732, 5,6-dichloro-2-phenyl-1H-benzo[d]imidazole-4.7-dione] | dose-dependent p53 rescue effects | 2.2 µM | −41.43 | no significant decrease in cell counts | 477.5 | 0.12 | two-fold or greater stronger TGase2 enzyme activity inhibitory effects than the control | – | –
2 | O=C1C(Cl)=C(Cl)C(=O)c2[nH]c(-c3ccc(Br)cc3)nc21 [LDD3922, 2-(4-bromophenyl)-5,6-dichloro-1H-benzo[d]imidazole-4,7-dione] | dose-dependent p53 rescue effects | – | 52.25 | no significant decrease in cell counts | 352.5 | 0.08 | two-fold or greater stronger TGase2 enzyme activity inhibitory effects than the control | 5 µM | –
3 | COC1=C(N)C(=O)c2nc(-c3nc(C(=O)O)c(C)c(-c4ccc(OC)c(OC)c4O)c3N)ccc2C1=O [streptonigrin, Streptonigrin, reference compound] | – | – | – | – | 1275.5 | – | – | – | low
